From US8134015B2, “Compound inhibiting in vivo phosphorous transport and medicine containing the same” (Kyowa Hakko Kirin Co., Ltd., priority 2003, dated 2012) come the findings set out here.

Structures can show the parent of a compound that is named as a salt. Some results are limits rather than exact numbers.

For one assay, the target named is T1, rat NaPi-2b (Rattus norvegicus, UniProt Q9JJ09).
T1 construct: expressed in transfected cells; host or cells: Xenopus oocytes injected with cRNA
T1 sequence (Q9JJ09 1-695): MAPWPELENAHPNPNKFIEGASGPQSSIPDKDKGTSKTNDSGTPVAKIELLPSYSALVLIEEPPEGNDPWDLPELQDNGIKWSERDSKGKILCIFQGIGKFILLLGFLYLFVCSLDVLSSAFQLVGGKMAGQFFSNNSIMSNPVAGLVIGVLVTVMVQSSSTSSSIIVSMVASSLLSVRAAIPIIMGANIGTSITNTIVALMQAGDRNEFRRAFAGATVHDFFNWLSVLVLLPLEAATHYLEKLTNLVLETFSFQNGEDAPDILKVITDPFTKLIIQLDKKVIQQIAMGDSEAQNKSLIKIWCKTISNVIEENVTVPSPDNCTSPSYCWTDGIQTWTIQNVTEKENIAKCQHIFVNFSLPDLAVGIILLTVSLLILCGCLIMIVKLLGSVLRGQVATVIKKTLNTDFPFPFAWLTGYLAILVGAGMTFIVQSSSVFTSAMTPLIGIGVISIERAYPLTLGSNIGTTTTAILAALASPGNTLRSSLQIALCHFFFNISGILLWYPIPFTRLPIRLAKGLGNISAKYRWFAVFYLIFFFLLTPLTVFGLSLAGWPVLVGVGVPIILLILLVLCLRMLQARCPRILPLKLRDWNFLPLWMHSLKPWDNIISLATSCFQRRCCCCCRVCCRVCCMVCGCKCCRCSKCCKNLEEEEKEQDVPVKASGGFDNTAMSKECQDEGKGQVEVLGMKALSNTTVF
As to the kind of experiment: Sodium-dependent phosphate uptake of Xenopus oocytes which expressed NaPi-2b (32P). The assay is classed as cell-based. The settings on record: Xenopus oocytes expressing rat NaPi-2b, 32P radioactive phosphorus; read-out: IC50 (phosphate uptake inhibitory activity). As to the method:
Pharmacological Test Example 1
Experiment of Sodium-Dependent Phosphate Uptake of Xenopus oocytes which Expressed NaPi-2b
Degenerate primers were prepared from sequences of mouse NaPi-2b disclosed in Hilfiker H. et al., Pro Natl Acad Sci USA, 95 (24): 14564-14569, […] and sequences of human and rat NaPi-2a disclosed in Magagnin S. et al., Proc Natl Aca Sci USA, 90 (13): 5979-5983, 1993. RNA was extracted from the rat small intestine using ISOGEN; manufactured by NIPPON GENE CO., LTD (Japan). 400 bp gene fragments were obtained by PCR using, as a template, a cDNA library prepared with a cDNA synthesis kit (manufactured by STRATAGENE (US)). Thereafter, the above rat small intestine cDNA library was screened using the gene fragment as a probe, and the whole gene sequence of rat NaPi-2b was cloned. cRNA was synthesized from the cloned rat NaPi-2b cDNA with a cRNA synthesis kit (manufactured by Ambion (US)). The synthesized cRNA was injected into Xenopus oocytes (obtained from COPACETIC (Japan)) with a liquid microinjector (manufactured by Drummond (US)) and was cultured for 2 days to express rat NaPi-2b. Thereafter, for a group of derivatives, phosphate uptake inhibitory activity were measured using the Xenopus oocytes with ^32P radioactive phosphorus (manufactured by Daiichi Kagaku Inc. (Japan)). […] The inhibitory activity for 300 μM and 100 μM was determined from the same inhibition curve and expressed in percentage inhibition (%) in Table 5.
With `O=C(Nc1ccc(N2CCCC2)cc1C(=O)N/N=C/c1ccc(Cl)c(C(F)(F)F)c1)c1cccc(CSCCO)c1` [Compound 920, N-[2-(4-Chloro-3-trifluoromethyl-benzylidene-hydrazinocarbonyl)-4-pyrrolidin-1-yl-phenyl]-3-(2-hydroxy-ethylsulfanylmethyl)-benzamide], the IC50 (in general, the point on the concentration scale where inhibition reaches its midpoint) is less than 1 µM.

As to `CCN(CC)CCN(C)Cc1ccc(C(=O)Nc2ccc(Br)cc2C(=O)N/N=C/c2cccc(C)c2)cc1` [Compound 286, N-[4-Bromo-2-(3-methyl-benzylidene-hydrazinocarbonyl)-phenyl]-4-{[(2-diethylamino-ethyl)-methyl-amino]-methyl}-benzamide], the IC50 came to 0.57 µM.

Consider `Cc1ccc(/C=N/NC(=O)c2cc(Br)ccc2NC(=O)c2ccc(CN3CCN(CCO)CC3)cc2)cc1C` [Compound 316, N-[4-Bromo-2-(3,4-dimethyl-benzylidene-hydrazinocarbonyl)-phenyl]-4-[4-(2-hydroxy-ethyl)-piperazin-1-ylmethyl]-benzamide], for which the IC50 amounted to 4.71 µM.

Turning to `CCN(CCO)Cc1ccc(C(=O)Nc2ccc(Cl)cc2C(=O)N/N=C/c2ccc(C)cc2)cc1` [Compound 435, N-[4-Chloro-2-(4-methyl-benzylidene-hydrazinocarbonyl)-phenyl]-4-{[ethyl-(2-hydroxy-ethyl)-amino]-methyl}-benzamide], the IC50 was 7.65 µM.

`COc1cc(OC)cc(C(=O)Nc2ccccc2C(=O)N/N=C/c2cccc(O)c2)c1` [Compound 58, N-[2-(3-Hydroxy-benzylidene-hydrazinocarbonyl)-phenyl]-3,5-dimethoxy-benzamide]: the IC50 stood at 7.67 µM.

Regarding `COc1cc(OC)cc(C(=O)Nc2ccccc2C(=O)N/N=C/c2cccc(F)c2)c1` [Compound 55, N-[2-(3-Fluoro-benzylidene-hydrazinocarbonyl)-phenyl]-3,5-dimethoxy-benzamide], the IC50 came to 0.86 µM.

In the case of `COc1ccc(C(=O)Nc2ccccc2C(=O)N/N=C/c2ccc(O)cc2O)cc1OC` [Compound 25, N-[2-(2,4-Dihydroxy-benzylidene-hydrazinocarbonyl)-phenyl]-3,4-dimethoxy-benzamide], the IC50 turned out to be 23.9 µM.

For `Cc1ccc(/C=N/NC(=O)c2ccsc2NC(=O)c2cccc(CN(CC(C)O)CC(C)O)c2)cc1` (centres unmarked) [Compound 671, 3-{[Bis-(2-hydroxy-propyl)-amino]-methyl}-N-[3-(4-methyl-benzylidene-hydrazinocarbonyl)-thiophen-2-yl]-benzamide], the 50% inhibitory concentration (IC50) is less than 3 µM.

On to `CC(O)CN(Cc1cccc(C(=O)Nc2ncccc2C(=O)N/N=C/c2ccc(Cl)c(C(F)(F)F)c2)c1)CC(C)O` (centres unmarked) [Compound 967, 3-{[Bis-(2-hydroxy-propyl)-amino]-methyl}-N-[3-(4-chloro-3-trifluoromethyl-benzylidene-hydrazinocarbonyl)-pyridin-2-yl]-benzamide], for which the IC50 stood at 6.57 µM.

As to `Cc1cccc(/C=N/NC(=O)c2cc(Br)ccc2NC(=O)c2ccc(CNCCN3CCOCC3)cc2)c1` [Compound 283, N-[4-Bromo-2-(3-methyl-benzylidene-hydrazinocarbonyl)-phenyl]-4-[(2-morpholin-4-yl-ethylamino)-methyl]-benzamide], the IC50 amounted to 22.4 µM.

`COc1ccc(/C=N/NC(=O)c2c(C)csc2NC(=O)c2cccc(CSCCCO)c2)cc1` [Compound 562, 3-(3-Hydroxy-propylsulfanylmethyl)-N-[3-(4-methoxy-benzylidene-hydrazinocarbonyl)-4-methyl-thiophen-2-yl]-benzamide]: the half-maximal inhibitory concentration (IC50) is less than 1 µM.

`CCN(CC)CCN(CCN(CC)CC)Cc1cccc(C(=O)Nc2sc3c(c2C(=O)N/N=C/c2ccc(OC)cc2)CCCC3)c1` [Compound 856, 3-{[Bis-(2-diethylamino-ethyl)-amino]-methyl}-N-[3-(4-methoxy-benzylidene-hydrazinocarbonyl)-4,5,6,7-tetrahydro-benzo[b]thiophen-2-yl]-benzamide; hydrochloride]: the IC50 amounted to 1.77 µM.

Take `Cc1ccc(/C=N/NC(=O)c2cc(Br)ccc2NC(=O)c2ccccn2)cc1` [Compound 356, Pyridin-2-carboxylic acid [4-bromo-2-(4-methyl-benzylidene-hydrazinocarbonyl)-phenyl]-amide hydrochloride]: the IC50 was found to be 0.17 µM.

Turning to `O=C(Nc1ccc(Br)cc1C(=O)N/N=C/c1cccc(F)c1)c1ccc(CN2CCC(CO)CC2)cc1` [Compound 336, N-[4-Bromo-2-(3-fluoro-benzylidene-hydrazinocarbonyl)-phenyl]-4-(4-hydroxymethyl-piperidin-1-ylmethyl)-benzamide], the IC50 worked out at 16.6 µM.

Consider `CCN(CC)CCN(C)Cc1cccc(C(=O)Nc2sccc2C(=O)N/N=C/c2ccc(F)cc2)c1` [Compound 666, 3-{[(2-Diethylamino-ethyl)-methyl-amino]-methyl}-N-[3-(4-fluoro-benzylidene-hydrazinocarbonyl)-thiophen-2-yl]-benzamide], for which the IC50 was determined as 31.2 µM.

For `COc1ccc(C(=O)Nc2ccc(Br)cc2C(=O)N/N=C/c2cccc(C)c2)cc1OC` [Compound 31, N-[4-Bromo-2-(3-methyl-benzylidene-hydrazinocarbonyl)-phenyl]-3,4-dimethoxy-benzamide], the IC50 turned out to be 0.58 µM.

`O=C(Nc1ccc(Br)cc1C(=O)N/N=C/c1ccc(F)cc1)c1ccc(CN2CCN(CCO)CC2)cc1` [Compound 319, N-[4-Bromo-2-(4-fluoro-benzylidene-hydrazinocarbonyl)-phenyl]-4-[4-(2-hydroxy-ethyl)-piperazin-1-ylmethyl]-benzamide]: the IC50 amounted to 9.76 µM.

As for `CCc1ccc(C(=O)Nc2ccc(Br)cc2C(=O)N/N=C/c2ccc(C)c(C)c2)cc1` [Compound 182, N-[4-Bromo-2-(3,4-dimethyl-benzylidene-hydrazinocarbonyl)-phenyl]-4-ethyl-benzamide], the IC50 is 10.2 µM.

`O=C(Nc1ccc(I)cc1C(=O)N/N=C/c1cccc(O)c1)c1cccc(CN2CCC(N3CCCCC3)CC2)c1` [Compound 490, 3-[1,4′]Bipiperidinyl-1′-ylmethyl-N-[2-(3-hydroxy-benzylidene-hydrazinocarbonyl)-4-iodo-phenyl]-benzamide]: the IC50 is less than 3 µM.

Still in this assay, the particulars now being: phosphate uptake, oocytes expressing rat NaPi-2b; 300 μM, determined from inhibition curve.
As to `COc1ccc(/C=N/NC(=O)c2cc(Br)ccc2NC(=O)c2ccc(CNCCCN(C)c3ccccc3)cc2)cc1` [Compound 762, N-[4-Bromo-2-(4-methoxy-benzylidene-hydrazinocarbonyl)-phenyl]-4-{[3-(methyl-phenyl-amino)-propylamino]-methyl}-benzamide], 300 µM produced 52.1% inhibition.

Turning to `CCN(CC)CCN(C)Cc1cccc(C(=O)Nc2c(C)csc2C(=O)N/N=C/c2ccc(F)cc2)c1` [Compound 528, 3-{[(2-Diethylamino-ethyl)-methyl-amino]-methyl}-N-[2-(4-fluoro-benzylidene-hydrazinocarbonyl)-4-methyl-thiophen-3-yl]-benzamide], the inhibition (usually the relative decrease from the control value, in per cent) at 300 µM was 58.4%.

`COc1ccc(C(=O)Nc2ccc(Br)cc2C(=O)NNCc2ccc(C)c(C)c2)cc1OC` [Compound 548, N-{4-Bromo-2-[N′-(3,4-dimethyl-benzyl)-hydrazinocarbonyl]-phenyl}-3,4-dimethoxy-benzamide] displayed an inhibition at 300 µM of 85.7%.

The molecule `CCN(CC)CCN(C)Cc1cccc(C(=O)Nc2c(C)csc2C(=O)N/N=C/c2ccc(C)cc2)c1` [Compound 710, 3-{[(2-Diethylamino-ethyl)-methyl-amino]-methyl}-N-[4-methyl-2-(4-methyl-benzylidene-hydrazinocarbonyl)-thiophen-3-yl]-benzamide] came in with an inhibition at 300 µM of 83.1%.
